Experimental data as given in the supplement of paper PMC10307832.

Experiments:
Assay in all cases: relative viability (nuclei count vs DMSO), 5 days (fraction); higher = more cells survive
[1] = compound: COC1=CC=C(C=C1)CN2C=CC3=C2C=C(C=C3)C(=O)NO + COc1cc2c(Oc3ccc(NC(=O)C4(C(=O)Nc5ccc(F)cc5)CC4)cc3F)ccnc2cc1OCCCN1CCOCC1 [Foretinib] (partner 0.25 µM)
Method in brief: (§1)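 Five library-drug doses in √10 steps were combined with a fixed anchor-drug dose, or a single drug was given alone, by pin tool to lung cancer cell lines in 1536-well plates the day after seeding. Nuclei were stained and counted after 5 days. Relative viability is the nuclei count in treated wells over that in vehicle wells, taken as the median of duplicate plates.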

[2] = compound: COC1=CC=C(C=C1)CN2C=CC3=C2C=C(C=C3)C(=O)NO + CS(=O)(=O)N1CCN(Cc2cc3nc(-c4cccc5[nH]ncc45)nc(N4CCOCC4)c3s2)CC1 [Pictilisib] (partner 1 µM)
Method in brief: as §1

Veliparib + Tozasertib = compound: C[C@]1(c2nc3c(C(N)=O)cccc3[nH]2)CCCN1 [Veliparib] + Cc1cc(Nc2cc(N3CCN(C)CC3)nc(Sc3ccc(NC(=O)C4CC4)cc3)n2)n[nH]1 [Tozasertib] (partner 0.1 µM)
Method in brief: as §1

Veliparib + Olaparib = compound: C[C@]1(c2nc3c(C(N)=O)cccc3[nH]2)CCCN1 [Veliparib] + O=C(c1cc(Cc2n[nH]c(=O)c3ccccc23)ccc1F)N1CCN(C(=O)C2CC2)CC1 [Olaparib] (partner 8 µM)
Method in brief: as §1

Cell Line	relative viability ([1]; first compound 0.253 µM)	relative viability ([1]; first compound 0.8 µM)	relative viability ([1]; first compound 2.53 µM)	relative viability ([1]; first compound 8 µM)	relative viability ([2]; first compound 0.253 µM)	relative viability ([2]; first compound 0.8 µM)	relative viability ([2]; first compound 2.53 µM)	relative viability ([2]; first compound 8 µM)	relative viability (Veliparib + Tozasertib; first compound 0.06325 µM)	relative viability (Veliparib + Tozasertib; first compound 0.2 µM)	relative viability (Veliparib + Tozasertib; first compound 0.6325 µM)	relative viability (Veliparib + Tozasertib; first compound 2 µM)	relative viability (Veliparib + Olaparib; first compound 0.02 µM)	relative viability (Veliparib + Olaparib; first compound 0.06325 µM)	relative viability (Veliparib + Olaparib; first compound 0.2 µM)	relative viability (Veliparib + Olaparib; first compound 0.6325 µM)	relative viability (Veliparib + Olaparib; first compound 2 µM)	relative viability ([1]; first compound 0.08 µM)	relative viability ([2]; first compound 0.08 µM)	relative viability (Veliparib + Tozasertib; first compound 0.02 µM)
A-427	1.03	1.16	1.12	1	0.743	0.787	0.643	0.606	0.232	0.181	0.198	0.283	0.575	0.697	0.78	0.656	0.737			
NCI-H2009	1.3	1.17	1.27	1.24	0.836	0.91	0.788	0.604	0.753	0.741	0.745	0.854	0.672	0.652	0.682	0.672	0.763	0.931	0.601	0.798
NCI-H1993	0.818	0.836	0.892	0.777	0.0552	0.772	0.837	0.756	0.583	0.671	0.627	0.598		1.05	1.2	1.03	1.13	0.552	0.717	0.612
NCI-H2087	1.15	1.17	1.03	0.962	0.936	0.776	0.976	0.674	0.235	0.222	0.203	0.27	0.648	0.484	0.642	0.589	0.681	0.659	0.497	0.258
LCLC-97TM1	0.992	0.96	0.942	0.923	0.283	0.205	0.227	0.123	0.237	0.204	0.197	0.253	0.433	0.475	0.439	0.233	0.527	0.444		0.231
HCC-827	1.13	1.09	1.05	0.996	0.921	1.07	1.15	0.927	0.443	0.434	0.376	0.398	0.629	0.634	0.561	0.585	0.615	0.834	0.934	0.436
COR-L 105	1.43	0.853	1.08	0.212	0.348	0.462	0.363	0.306	0.307	0.434	0.313	0.346	0.689	0.519	0.732	0.608	0.731	0.681		0.35
NCI-H1915	1.1	1.15	1.07	1.09	0.997	1.08	0.973	0.735	0.426	0.413	0.409	0.394	0.252	0.238	0.243	0.251	0.254	1.07	0.62	0.402
